# How the values were obtained:
# [1] = tested on: crabgrass, large; test: Test A postemergence; format: in vivo, Digitaria sanguinalis
# Outline: (§1)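 Greenhouse test in loam soil/sand blend; compounds formulated in non-phytotoxic solvent with surfactant, applied as preemergence directed soil spray or postemergence to plants 2–10 cm tall at one- to two-leaf stage. Injury rated visually versus untreated controls after approximately 10 days on a 0 (no effect) to 100 (complete control) scale.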
# [2] = tested on: nutsedge, yellow; test: Test C preemergence; format: in vivo, Cyperus esculentus
# Source text: (§2) Seeds of plant species selected from blackgrass (Alopecurus myosuroides), ryegrass, Italian (Italian ryegrass, Lolium multiflorum), wheat (winter wheat, Triticum aestivum), galium (catchweed bedstraw, Galium aparine), corn (Zea mays), crabgrass, large (large crabgrass, Digitaria sanguinalis), foxtail, giant (giant foxtail, Setaria faberii), johnsongrass (Sorghum halepense), lambsquarters (Chenopodium album), morningglory (Ipomoea coccinea), nutsedge, yellow (yellow nutsedge, Cyperus esculentus), pigweed (redroot pigweed, Amaranthus retroflexus), ragweed (common ragweed, Ambrosia elation), soybean (Glycine max), barnyardgrass (Echinochloa crus-galli), oilseed rape (Brassica napus), waterhemp (common waterhemp, Amaranthus rudis), oat, wild (wild oat, Avena fatua), kochia (Kochia scoparia), Surinam grass (Brachiaria decumbens), foxtail, green (green foxtail, Setaria viridis), goosegrass (Eleusine indica), bromegrass, downy (downy bromegrass, Bromus tectorum), nightshade (eastern black nightshade, Solanum ptycanthum), cocklebur (common cocklebur, Xanthium strumarium), cupgrass, woolly (woolly cupgrass, Eriochloa villosa), bermudagrass (Cynodon dactylon), sunflower, (common oilseed sunflower, Helianthus annuus), Russian thistle (Salsola kali), and velvetleaf (Abutilon theophrasti) were planted into a blend of loam soil and sand and treated preemergence with test chemicals formulated in a non-phytotoxic solvent mixture which included a surfactant.
# (§3) At the same time, plants selected from these crop and weed species and also chickweed (common chickweed, Stellaria media), canarygrass (littleseed canarygrass, Phalaris minor), and deadnettle (henbit deadnettle, Lamium amplexicaule), were planted in pots containing Redi-Earth® planting medium (Scotts Company, 14111 Scottslawn Road, Marysville, Ohio 43041) comprising spaghnum peat moss, vermiculite, wetting agent and starter nutrients and treated with postemergence applications of test chemicals formulated in the same manner. Plants ranged in height from 2 to 18 cm (1- to 4-leaf stage) for postemergence treatments. Treated plants and controls were maintained in a greenhouse for 13 to 15 days, after which time all species were compared to controls and visually evaluated. Plant response ratings, summarized in Table C, are based on a scale of 0 to 100 where 0 is no effect and 100 is complete control. A dash (-) response means no test result.
# [3] = tested on: velvetleaf; test: Test A preemergence; format: in vivo, Abutilon theophrasti; conditions: preemergence; for Velvetleaf plant response rating (0 to 100 scale): visual injury approx. 10 days after treatment
# Outline: as §1
# [4] = tested on: oilseed rape; test: Test C preemergence; format: in vivo, Brassica napus
# Source text: as §2, §3
# [5] = tested on: barnyardgrass; test: Test A postemergence; format: in vivo, Echinochloa crus-galli
# Outline: as §1
# [6] = tested on: barnyardgrass; test: Test A preemergence; format: in vivo, Echinochloa crus-galli; conditions: preemergence; for Barnyardgrass plant response rating (0 to 100 scale, 0 is no effect, 100 is complete control): visual injury approx. 10 days after treatment
# Outline: as §1
# [7] = tested on: velvetleaf; test: Test C preemergence; format: in vivo, Abutilon theophrasti
# Source text: as §2, §3
# [8] = tested on: crabgrass, large; test: Test A preemergence; format: in vivo, Digitaria sanguinalis; conditions: preemergence; for Crabgrass, Large plant response rating (0 to 100 scale): visual injury approx. 10 days after treatment
# Outline: as §1
# [9] = tested on: soybean; test: Test C preemergence; format: in vivo, Glycine max
# Source text: as §2, §3
# [10] = tested on: pigweed; test: Test A postemergence; format: in vivo, Amaranthus retroflexus
# Outline: as §1
# [11] = Postemergence, 500 g ai/ha, 0 to 100 scale (0 no effect, 100 complete control)
# [12] = postemergence, 125 g ai/ha, about 10 days, visual rating on 0 to 100 scale (0 no effect, 100 complete control)
# [13] = Preemergence, 16 g ai/ha, scale 0 to 100
# [14] = preemergence, 31 g ai/ha, visual rating, scale 0 to 100 (0 no effect, 100 complete control), 13 to 15 days
# [15] = preemergence, 62 g ai/ha, scale 0 to 100 (0 no effect, 100 complete control), 13 to 15 days
# [16] = preemergence, 125 g ai/ha, 13 to 15 days, scale 0 to 100, 0 = no effect, 100 = complete control
# [17] = 500 g ai/ha, visual injury after approx. 10 days, 0 to 100 scale (0 no effect, 100 complete control)
# [18] = Preemergence, 4 g ai/ha, scale 0 to 100
# [19] = Preemergence, 8 g ai/ha, scale 0 to 100
# [20] = 125 g ai/ha, visual injury, 0 to 100 scale, approx. 10 days
# [21] = preemergence, 250 g ai/ha, scale 0 to 100, 0 is no effect, 100 is complete control
Structure (SMILES),"Crabgrass, Large plant response rating [1, 11]","Crabgrass, Large plant response rating [1, 12]","Plant response rating, Nutsedge, Yellow [2, 13]","Nutsedge, Yellow plant response rating [2, 14]","Nutsedge, Yellow plant response rating [2, 15]","Plant response rating, Nutsedge, Yellow [2, 16]",Velvetleaf plant response rating (0 to 100 scale) ([3]; 125 g ai/ha),"Velvetleaf plant response rating [3, 17]","Plant response rating, Oilseed Rape [4, 13]","Oilseed Rape plant response rating [4, 14]","Oilseed Rape plant response rating [4, 15]","Plant response rating, Oilseed Rape [4, 16]","Barnyardgrass plant response rating [5, 11]","Barnyardgrass plant response rating [5, 12]","Barnyardgrass plant response rating [6, 17]","Velvetleaf plant response rating [7, 14]","Crabgrass, Large plant response rating [8, 17]","Soybean plant response rating [9, 14]","Pigweed plant response rating [10, 11]","Pigweed plant response rating [10, 12]",other results
CCNC(=O)c1cc(CCF)n(Cc2ccnc(C(F)(F)F)c2)n1 [Compound 178],90,80,0,5,15,35,30,90,50,70,80,98,80,70,100,15,100,5,100,100,"Barnyardgrass plant response rating (0 to 100 scale, 0 is no effect, 100 is complete control) ([6]; 125 g ai/ha): 80; Plant response rating, Velvetleaf [7, 13]: 10; Velvetleaf plant response rating [7, 15]: 55; Plant response rating, Velvetleaf [7, 16]: 70; Crabgrass, Large plant response rating (0 to 100 scale) ([8]; 125 g ai/ha): 100; Plant response rating, Soybean [9, 13]: 5; Soybean plant response rating [9, 15]: 40; Plant response rating, Soybean [9, 16]: 75"
CCOc1cc(C(=O)NCC(F)(F)F)nn1Cc1cc(C(F)(F)F)nn1C [Compound 140],90,70,0,15,–,–,–,100,95,95,–,–,90,70,100,45,100,25,100,100,"Plant response rating, Nutsedge, Yellow [2, 18]: 0; Plant response rating, Nutsedge, Yellow [2, 19]: 15; Velvetleaf plant response rating [3, 20]: 60; Plant response rating, Oilseed Rape [4, 18]: 5; Plant response rating, Oilseed Rape [4, 19]: 80; Barnyardgrass plant response rating [6, 20]: 90; Plant response rating, Velvetleaf [7, 18]: 0; Plant response rating, Velvetleaf [7, 19]: 5; Plant response rating, Velvetleaf [7, 13]: 10; Crabgrass, Large plant response rating [8, 20]: 100; Plant response rating, Soybean [9, 18]: 10; Plant response rating, Soybean [9, 19]: 5; Plant response rating, Soybean [9, 13]: 5"
O=C(NC1CC1)c1cc(CCF)n(Cc2ccnc(C(F)(F)F)c2)n1 [Compound 176],90,80,–,5,5,75,50,90,–,90,90,95,90,60,100,30,100,30,100,100,"Nutsedge, Yellow plant response rating [2, 21]: 85; Oilseed Rape plant response rating [4, 21]: 100; Barnyardgrass plant response rating (0 to 100 scale, 0 is no effect, 100 is complete control) ([6]; 125 g ai/ha): 80; Velvetleaf plant response rating [7, 15]: 75; Plant response rating, Velvetleaf [7, 16]: 90; Velvetleaf plant response rating [7, 21]: 100; Crabgrass, Large plant response rating (0 to 100 scale) ([8]; 125 g ai/ha): 100; Soybean plant response rating [9, 15]: 75; Plant response rating, Soybean [9, 16]: 98; Soybean plant response rating [9, 21]: 98"

# — patent US20150105252A1, “SUBSTITUTED PYRAZOLES AS HERBICIDES” (E I DU PONT DE NEMOURS AND COMPANY, priority 2013, published 2015)
